{"source": "patent US20220370322A1", "about": "“UV BLOCKING COMPOSITION COMPRISING RED ALGAE-DERIVED FLORIDOSIDE AND AMINE GROUP-CONTAINING COMPOUND” (ATHENA CO., LTD., priority 2019, published 2022)", "key": {"Raw 264.7 cells": {"tested_on": "Raw 264.7 cells", "test": "Cytotoxicity test (Cell Counting Kit-8)", "format": "cell-based", "conditions": "for Viability (%): 24 hours, CCK-8; for Absorbance AVERAGE: absorbance at 450 nm, mean of three; for Absorbance: single replicates, measured at 450 nm", "experimental": "A cytotoxicity test was performed on the sample, which had been identified to be floridoside, by using the Cell Counting Kit-8 kit (DOJINDO, CK04-05).\nRaw 264.7 cells were cultured at 1×10^4 cells/well in a DMEM medium containing 10% FBS in a 96-well plate at 37° C. in 5% CO2 incubator for 24 hours, and then treated with a drug. After the cells were cultured at 37° C. in the 5% CO2 incubator for 24 hours, CCK-8 solution was added, followed by incubation at 37° C. for 2 hours, and then the absorbance was measured at 450 nm."}, "skin": {"tested_on": "skin", "test": "Primary patch test for human body application (skin irritation, ICDRG criteria)", "format": "in vivo", "set-up": "key to Mean score of the skin reaction: mean of ICDRG-graded reactions via skin reaction formula", "conditions": "31 subjects", "experimental": "A primary patch test for human body application was performed on the sample.\nSubjects of the test were determined for skin irritation by a dermatologist a total of 4 times (the date of a patch, the date of removal of the patch, and 24 hours and 120 hours after removal of the patch) during the test period.\nThe skin patch test was performed using the Van der Bend chamber (Van der Bend, Brielle, the Netherlands). For each of 31 subjects, the sample was applied between the shoulder blade and the waist line on the basis of the spin on the back by using the Van der Bend chamber.\nA site of the test was washed with distilled water and dried, and then the sample was dissolved in 10% distilled water. Thereafter, 35 μl was dropped in the Van der Bend chamber, which was then put and fixed on the site of the test. The sample was patched on the skin for 48 hours, and after the removal of the patch, the site of the test was marked with a marking pen, and the site of the test was observed after 30 minutes, 24 hours, and 120 hours.\nWith respect to the skin reaction, the degrees of irritation were classified according to the evaluation criteria of the International Contact Dermatitis Research Group (ICDRG) as shown in Table 2 below.\nThe mean score of the skin reaction was calculated by the skin reaction calculation formula, and then the presence or absence of irritation was determined according to the decision table of the skin patch test."}}, "note": "Values joined by “and” are separate entries in the source; they are usually repeats but may differ in a detail not shown here. Identical values can stand only once."}
{"compound": "OCC(CO)O[C@H]1O[C@H](CO)[C@H](O)[C@H](O)[C@H]1O", "note": "[Floridoside, 2-O-α-D-galactopyranosylglycerol]", "values": [{"measurement": "Viability (%)", "setting": "Raw 264.7 cells; 1 ppm, Raw 264.7 cells", "value": 83, "unit": "%"}, {"measurement": "Absorbance AVERAGE", "setting": "Raw 264.7 cells; 1 ppm", "value": 2.594}, {"measurement": "Absorbance", "setting": "Raw 264.7 cells; 1 ppm", "value": "2.73 and 2.59 and 2.47"}, {"measurement": "Viability (%)", "setting": "Raw 264.7 cells; 10 ppm, Raw 264.7 cells", "value": 88, "unit": "%"}, {"measurement": "Absorbance AVERAGE", "setting": "Raw 264.7 cells; 10 ppm", "value": 2.746}, {"measurement": "Absorbance", "setting": "Raw 264.7 cells; 10 ppm", "value": "2.69 and 2.73 and 2.81"}, {"measurement": "Viability (%)", "setting": "Raw 264.7 cells; 100 ppm, Raw 264.7 cells", "value": 88, "unit": "%"}, {"measurement": "Absorbance AVERAGE", "setting": "Raw 264.7 cells; 100 ppm", "value": 2.759}, {"measurement": "Absorbance", "setting": "Raw 264.7 cells; 100 ppm", "value": "2.68 and 2.79 and 2.81"}, {"measurement": "Viability (%)", "setting": "Raw 264.7 cells; 500 ppm, Raw 264.7 cells", "value": 89, "unit": "%"}, {"measurement": "Absorbance AVERAGE", "setting": "Raw 264.7 cells; 500 ppm", "value": 2.790}, {"measurement": "Absorbance", "setting": "Raw 264.7 cells; 500 ppm", "value": "2.72 and 2.8 and 2.85"}, {"measurement": "Viability (%)", "setting": "Raw 264.7 cells; 1000 ppm, Raw 264.7 cells", "value": 89, "unit": "%"}, {"measurement": "Absorbance AVERAGE", "setting": "Raw 264.7 cells; 1000 ppm", "value": 2.781}, {"measurement": "Absorbance", "setting": "Raw 264.7 cells; 1000 ppm", "value": "2.75 and 2.77 and 2.82"}, {"measurement": "Cell protective effect", "setting": "Raw 264.7 cells; Raw 264.7 cells, 1-1000 ppm, conclusion in words", "value": "excellent cell protective effect"}, {"measurement": "Determination (skin patch test)", "setting": "skin; decision table of the skin patch test", "value": "No irritation"}, {"measurement": "Mean score of the skin reaction", "setting": "skin; skin reaction calculation formula", "value": 0.00}, {"measurement": "Degree of reaction + (first line), number of subjects", "setting": "skin; After 30 minutes", "value": 0}, {"measurement": "Degree of reaction + (second line), number of subjects", "setting": "skin; After 30 minutes", "value": 0}, {"measurement": "Degree of reaction +++, number of subjects", "setting": "skin; After 30 minutes", "value": 0}, {"measurement": "Degree of reaction ++, number of subjects", "setting": "skin; After 30 minutes", "value": 0}, {"measurement": "Degree of reaction + (first line), number of subjects", "setting": "skin; After 24 hours", "value": 0}, {"measurement": "Degree of reaction + (second line), number of subjects", "setting": "skin; After 24 hours", "value": 0}, {"measurement": "Degree of reaction +++, number of subjects", "setting": "skin; After 24 hours", "value": 0}, {"measurement": "Degree of reaction ++, number of subjects", "setting": "skin; After 24 hours", "value": 0}, {"measurement": "Degree of reaction + (first line), number of subjects", "setting": "skin; After 120 hours", "value": 0}, {"measurement": "Degree of reaction + (second line), number of subjects", "setting": "skin; After 120 hours", "value": 0}, {"measurement": "Degree of reaction +++, number of subjects", "setting": "skin; After 120 hours", "value": 0}, {"measurement": "Degree of reaction ++, number of subjects", "setting": "skin; After 120 hours", "value": 0}]}
